Measured values from BindingDB's records for patent US20240000767 (Bayer Aktiengesellschaft, 2024).
pIC50: −log10 of the molar value.

Biological target: T1, Alpha-2C adrenergic receptor (Homo sapiens, UniProt P18825)
T1 sequence (P18825 whole entry): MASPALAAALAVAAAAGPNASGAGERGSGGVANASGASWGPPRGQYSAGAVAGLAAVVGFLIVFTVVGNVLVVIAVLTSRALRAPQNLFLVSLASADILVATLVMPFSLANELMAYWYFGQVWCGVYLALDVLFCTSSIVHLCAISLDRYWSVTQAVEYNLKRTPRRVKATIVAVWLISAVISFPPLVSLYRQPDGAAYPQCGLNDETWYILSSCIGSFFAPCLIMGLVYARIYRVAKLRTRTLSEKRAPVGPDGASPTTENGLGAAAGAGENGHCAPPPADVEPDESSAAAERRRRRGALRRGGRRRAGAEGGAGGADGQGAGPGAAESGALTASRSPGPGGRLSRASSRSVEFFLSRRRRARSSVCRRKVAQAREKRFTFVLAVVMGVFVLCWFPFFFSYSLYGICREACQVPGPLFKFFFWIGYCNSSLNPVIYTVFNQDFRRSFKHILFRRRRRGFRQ
Assay: In Vitro Radioligand Binding Assay
Protocol: In Vitro Radioligand Binding Studies for Determination of the Dissociation Constants K1 at the Human Adrenoreceptor ADRA2C (Eurofins Panlabs Discovery Services, Taiwan, Ltd)A competition assay based on [3H] rauwolscine as radioliganden was used to determine the binding affinity of the test substances at the human ADRA2C receptor.To configure the competition assay, the equilibrium dissociation constant Kd of the radioligand [3H] rauwolscine was determined in a saturation experiment. To this end, homogenates of CHO-K1 cells recombinantly expressing the human ADRA2C receptor were incubated with increasing concentrations of the radiotracers for 1 h at 4° C. in binding buffer (50 mM Tris-HCl, 1 mM EDTA, pH 7.4). Unspecific binding was determined by addition of an excess of the not radioactively labelled ligand prazosin (10 μM). The radioactivity was determined in a scintiation counter.The competition experiments were carried out in the presence of 0.5 nM [3H] rauwolscine and increasing concentrations of the test substances to be characterized under the conditions described above.

| pIC50 | SMILES |
| --- | --- |
| 7.52 | C[C@@H]1CCCN(C2CCN(c3nc(Br)c(C(=O)NCc4ncc(F)cc4F)s3)CC2)C1 [US20240000767, Example 119] |
| 5.17 | C[C@@H]1CCCN(C2CCN(c3ncc(C(=O)NCc4cc(C(F)(F)F)ccn4)s3)CC2)C1 [US20240000767, Example 18] |
